In patent publication US5183824A, “Azole derivatives and antifungal drugs containing the same as an active component” (Kao Corporation, priority 1989, dated 1993):
Converted amounts (≈) assume the structure as drawn.

What was measured:
[1] = tested on: T. mentagrophytes (TIMM 1189); assay: Antifungal activities (in vivo), guinea pig skin infection, retro-culture; set-up: species or system Hartley white female guinea pigs; settings: guinea pigs, 1% test compound in white petrolatum applied once a day for 6 days from fifth day of inoculation
Excerpt: Hartley white female guinea pigs were used in this test. The back hair were depilated to form a round area having a diameter of 2 cm. 1×10^8microconidia of T. mentagrophytes (TIMM 1189) were inoculated therein for infection. From the fifth day of the inoculation, a composition containing 1% test compound (base: white petrolatum) was applied once a day for 6 consecutive days. Thereafter, the animals were left for 1 day, and slaughtered while removing the blood. The suffered skin was taken, cut and subjected to the retro-culture. The negative ratio of the strain was measured.

C. albicans (TIMM 0144) = assay: Direct cell-membrane damaging (potassium ion leakage); assay type: cell-based; settings: test compound 40 μg/ml, 15 minutes, atomic absorption spectrometry
Procedure: Direct cell-membrane damaging, which is one of the characteristic actions of azole antifungal drugs, was evaluated.
As a test strain, C. albicans (TIMM 0144) was used. Fresh cultures of C. albicans (TIMM 0144) were washed to make a deionized aqueous solution containing the same at a concentration of 1×10^8 /ml. In the presence of a test compound at a concentration of 40 μg/ml, potassium ion leakage concentration was measured 15 minutes after by way of atomic absorption spectrometry to evaluate the direct cell-membrane damaging.

Trichophyton sp. = assay: Antifungal activities (in vitro), MIC on Sabouraud's agar medium; assay type: cell-based; settings: 168 h, 27° C., growth evaluated seven days after
Procedure: (§1) A plate of a series of diluted specimen was prepared under steriled conditions using Sabouraud's agar medium (glucose 2%, peptone 1%, agar 1.5%), to which 1 μl of each of the test fungus solutions was inoculated by using a quantitative platinum loop.

Candida sp. = assay: as above; assay type: cell-based; settings: 48 h, 37° C., growth evaluated two days after
Procedure: as §1

Acute toxicity = settings: mouse, in vivo, po; dosed orally on mice

| SMILES | MIC (Trichophyton sp.) [µg/mL] | MIC (Candida sp.) [µg/mL] | Negative ratio (%) [1] [%] | Potassium ion leakage rate (%) (C. albicans (TIMM 0144)) | LD50 (Acute toxicity) [mg/kg] |
| --- | --- | --- | --- | --- | --- |
| Clc1ccccc1C(c1ccccc1)(c1ccccc1)n1ccnc1 [Clotrimazole, clotrimazole, reference compound] |  |  | 24 |  |  |
| CC(C)=CCC/C(C)=C/COC(Cn1ccnc1)c1ccc(Cl)cc1Cl (centres unmarked) [Compound 1, 1-[2-(2,4-dichlorophenyl)-2-((E)-3,7-dimethylocta-2,6-dienyloxy)ethyl]-1H-imidazole] | 5 to 10 (≈ 12.7 to 25.4 µM) | 40 (≈ 102 µM) | 95 | 81 | ≥ 1000 |
| CC(C)=CCC/C(C)=C/COC(Cn1ccnc1)c1ccccc1C(F)(F)F (centres unmarked) [Compound 4, 1-[2-((E)-3,7-dimethylocta-2,6-dienyloxy)-2-(2-trifluoromethylphenyl)ethyl]-1H-imidazole] | 1.25 to 20 (≈ 3.18 to 51 µM) | 20 (≈ 51 µM) |  |  |  |
| CC(C)=CCC/C(C)=C/COC(Cn1ccnc1)c1ccccc1 (centres unmarked) [Compound 5, 1-[2-((E)-3,7-dimethylocta-2,6-dienyloxy)-2-phenylethyl]-1H-imidazole] | 5 (≈ 15.4 µM) | 20 (≈ 61.6 µM) |  |  |  |
| CC(C)=CCC/C(C)=C/COC(Cn1cncn1)c1ccc(Br)cc1 (centres unmarked) [Compound 7, 1-[2-(4-bromophenyl)-2-((E)-3,7-dimethylocta-2,6-dienyloxy)ethyl]-1H-triazole] | > 80 | > 80 |  |  |  |
| Clc1ccc(COC(Cn2ccnc2)c2ccc(Cl)cc2Cl)c(Cl)c1 (centres unmarked) [Miconazole, miconazole, reference compound] |  |  | 27 |  |  |

Second part, led by results:

| MIC (Trichophyton sp.) [µg/mL] | MIC (Candida sp.) [µg/mL] | SMILES | Negative ratio (%) [1] [%] | Potassium ion leakage rate (%) (C. albicans (TIMM 0144)) | LD50 (Acute toxicity) [mg/kg] |
| --- | --- | --- | --- | --- | --- |
| 40 to 80 (≈ 86.7 to 173 µM) | > 80 | CC(C)=CCC/C(C)=C/CC/C(C)=C/COC(Cn1ccnc1)c1ccc(Cl)cc1Cl (centres unmarked) [Compound 2, 1-[2-(2,4-dichlorophenyl)-2-((E,E)-3,7,11-trimethyldodeca-2,6,10-trienyloxy)ethyl]-1H-imidazole] |  | 55 |  |
| 0.16 to 5 (≈ 0.433 to 13.5 µM) | 20 to 40 (≈ 54.1 to 108 µM) | CC(C)=CCC/C(C)=C/COC(Cn1ccnc1)c1ccccc1[N+](=O)[O-] (centres unmarked) [Compound 3, 1-[2-((E)-3,7-dimethylocta-2,6-dienyloxy)-2-(2-nitrophenyl)ethyl]-1H-imadazole] |  |  |  |
| 5 to 10 (≈ 12.7 to 25.4 µM) | 20 to 40 (≈ 50.8 to 102 µM) | CC(C)=CCC/C(C)=C\COC(Cn1ccnc1)c1ccc(Cl)cc1Cl (centres unmarked) [Compound 6, 1-[2-(2,4-dichlorophenyl)-2-((Z)-3,7-dimethylocta-2,6-dienyloxy)ethyl]-1H-imidazole] | 89 | 74 |  |
| 10 to 20 (≈ 25.5 to 51 µM) | 40 (≈ 102 µM) | CC(C)=CCC/C(C)=C/CNC(Cn1ccnc1)c1ccc(Cl)cc1Cl (centres unmarked) [Compound 8, 1-[2-(2,4-dichlorophenyl)-2-((E)-3,7-dimethylocta-2,6-dienylamino)ethyl]-1H-imidazole] | 46 | 65 |  |
| 10 to 20 (≈ 24.6 to 49.2 µM) | 40 (≈ 98.4 µM) | CC(C)=CCC/C(C)=C/CN(C)C(Cn1ccnc1)c1ccc(Cl)cc1Cl (centres unmarked) [Compound 9, 1-[2-(2,4-dichlorophenyl)-2-{N-((E)-3,7-dimethylocta-2,6-dienyl)-N-methylamino}ethyl]-1H-imidazole] | 34 |  |  |
| 20 (≈ 48.8 µM) | > 80 | CC(C)=CCC/C(C)=C/CSC(Cn1ccnc1)c1ccc(Cl)cc1Cl (centres unmarked) [Compound 10, 1-[2-(2,4-dichlorophenyl)-2-((E)-3,7-dimethylocta-2,6-dienylthio)ethyl]-1H-imidazole] | 37 | 47 |  |
| 5 to 20 (≈ 12.3 to 49.2 µM) | 40 (≈ 98.4 µM) | CC(C)=CCC/C(C)=C/CO/N=C(\Cn1ccnc1)c1ccc(Cl)cc1Cl [Compound 11, (Z)-1-(2,4-dichlorophenyl)-2-(1H-imidazole-1-yl)-O-((E)-3,7-dimethylocta-2,6-dienyl) ethanonoxime] |  |  |  |
